Laboratory results from PMC9609004, “Computational Design, Synthesis, and Pharmacological Evaluation of Naproxen-Guaiacol Chimera for Gastro-Sparing Anti-Inflammatory Response by Selective COX2 Inhibition” (Molecules, 2022).
“And” between values parts separate entries of the source, which are not always exact repeats. Identical values can stand only once. “Also recorded” adds a separate entry of the source. Like-named read-outs stand apart in the source and are kept apart here.

Columns and labels:
COX1 = biological target: T1, COX1 (Ovis aries, UniProt P05979); test: Cyclooxygenase (COX1) inhibitory assay, ovine/human COX inhibitor assay kit; format: biochemical; conditions: n = 3, mean ± SD
T1 construct: purchased
T1 sequence (P05979 25-600): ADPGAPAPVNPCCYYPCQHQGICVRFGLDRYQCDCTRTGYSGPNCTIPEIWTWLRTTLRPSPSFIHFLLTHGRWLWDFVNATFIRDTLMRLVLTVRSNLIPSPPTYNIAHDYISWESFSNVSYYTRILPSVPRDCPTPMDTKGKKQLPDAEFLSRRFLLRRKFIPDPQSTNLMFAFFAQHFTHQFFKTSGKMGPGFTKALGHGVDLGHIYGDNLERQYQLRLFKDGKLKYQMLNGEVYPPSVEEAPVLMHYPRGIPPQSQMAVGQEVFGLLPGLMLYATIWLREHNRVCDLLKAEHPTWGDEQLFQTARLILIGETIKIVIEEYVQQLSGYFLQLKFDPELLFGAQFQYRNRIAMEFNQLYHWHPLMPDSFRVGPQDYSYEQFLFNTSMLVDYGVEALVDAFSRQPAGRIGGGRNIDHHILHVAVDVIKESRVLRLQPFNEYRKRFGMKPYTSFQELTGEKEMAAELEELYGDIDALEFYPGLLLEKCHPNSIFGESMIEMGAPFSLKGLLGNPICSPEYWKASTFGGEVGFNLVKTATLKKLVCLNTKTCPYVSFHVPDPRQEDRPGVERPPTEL
Method: (§1) After that, 10 µL of arachidonic acid (100 µM), after 2 min of 1 M HCl of 50 µL and Ellman’s reagent, was added. The absorbance at 410 nm was measured spectrophotometrically against the blank. The selectivity index was calculated as follows:SI = IC50 COX1/IC50 COX2

COX2 = biological target: T2, COX2 (Homo sapiens, UniProt P35354); test: Cyclooxygenase (COX2) inhibitory assay, ovine/human COX inhibitor assay kit; format: biochemical
T2 construct: purchased
T2 sequence (P35354 18-604): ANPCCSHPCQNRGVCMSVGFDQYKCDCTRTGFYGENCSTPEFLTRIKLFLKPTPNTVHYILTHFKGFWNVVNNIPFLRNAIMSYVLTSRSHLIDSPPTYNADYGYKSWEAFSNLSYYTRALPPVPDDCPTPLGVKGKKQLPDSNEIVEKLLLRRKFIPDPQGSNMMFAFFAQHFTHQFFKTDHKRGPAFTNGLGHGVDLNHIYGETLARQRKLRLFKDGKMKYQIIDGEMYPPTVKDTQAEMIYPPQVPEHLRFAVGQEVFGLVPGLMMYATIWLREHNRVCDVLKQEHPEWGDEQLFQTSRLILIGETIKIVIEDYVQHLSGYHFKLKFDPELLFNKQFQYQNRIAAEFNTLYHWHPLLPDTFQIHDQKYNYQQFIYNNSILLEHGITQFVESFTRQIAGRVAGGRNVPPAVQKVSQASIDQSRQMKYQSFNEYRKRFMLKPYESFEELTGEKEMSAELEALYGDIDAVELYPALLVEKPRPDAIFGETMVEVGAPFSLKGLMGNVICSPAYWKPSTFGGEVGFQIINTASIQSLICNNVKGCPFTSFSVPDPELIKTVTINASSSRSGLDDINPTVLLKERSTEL
Method: as §1

human recombinant 5-LOX = biological target: T3, human recombinant 5-LOX (Homo sapiens, UniProt P09917); test: 5-Lipoxygenase inhibitory assay (5-LOX assay kit); format: biochemical
T3 construct: purchased
T3 sequence (P09917 1-674): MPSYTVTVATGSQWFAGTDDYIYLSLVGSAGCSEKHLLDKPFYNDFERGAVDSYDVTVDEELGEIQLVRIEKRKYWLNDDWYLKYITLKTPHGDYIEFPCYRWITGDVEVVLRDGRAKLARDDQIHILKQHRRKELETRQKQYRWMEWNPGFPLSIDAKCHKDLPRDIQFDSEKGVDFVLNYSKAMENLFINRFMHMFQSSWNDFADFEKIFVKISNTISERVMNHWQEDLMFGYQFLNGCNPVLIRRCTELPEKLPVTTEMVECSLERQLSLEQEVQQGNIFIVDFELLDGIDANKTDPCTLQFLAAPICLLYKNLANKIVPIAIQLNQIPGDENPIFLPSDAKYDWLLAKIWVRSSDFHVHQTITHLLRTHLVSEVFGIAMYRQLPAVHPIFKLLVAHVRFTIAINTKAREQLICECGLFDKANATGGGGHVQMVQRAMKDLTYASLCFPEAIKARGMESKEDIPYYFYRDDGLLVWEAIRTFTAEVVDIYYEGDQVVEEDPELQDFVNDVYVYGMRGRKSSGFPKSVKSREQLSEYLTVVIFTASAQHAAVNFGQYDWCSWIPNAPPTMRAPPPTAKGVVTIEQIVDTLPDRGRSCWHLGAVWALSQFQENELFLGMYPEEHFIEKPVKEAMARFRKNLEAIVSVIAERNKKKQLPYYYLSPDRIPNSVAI
Method: The MAS 1696 was tested against human recombinant 5-LOX using a 5-LOX assay kit. Briefly, 5-LOX solution (90 µL) was added with various MAS-1696 concentrations. The arachidonic acid (10 µL) was further added and the absorbance was measured at 490 nm against the blank.

[1] = test system: carrageenan-induced paw edema; test: Rat paw edema test induced by carrageenan; format: in vivo, Wistar rats; conditions: carrageenan 1% w/v, 2 h and 4 h, S-naproxen 15 mg/kg p.o., 4-allyl guaiacol 15.46 mg/kg, n = 6
Method: In vivo studies were performed as per the guidelines issued by the WHO, Geneva. The protocol was approved by the IAEC for animal handling. The Wistar rats (male; 225–250 g) and ICR mice (20–25 g) were procured from the Animal House facility of Panjab University Chandigarh. The anti-inflammatory activity of MAS-1696 was determined by injecting carrageenan in rat paws as published by us previously. The different groups of rats with six animals in each group were administered the drug. The fresh solution of carrageenan (Type IV, 0.1 mL, 1%) was used to induce acute edema by injecting it under the plantar aspect of the left hind paw. One […] (0.9%) of saline was administered to the right paw (control group). A plethysmometer was used to measure the change in the paw volume between two and four hours after the carrageenan challenge.

stomach (gastric ulcers) = test: Determination of ulcer index (gastric damage); format: in vivo, rats; conditions: S-naproxen 120 mg/kg p.o., equimolar doses of MAS-1696 or physical mixture; 4 h after treatment; n = 6
Method: The fasting rats were separated into four groups (n = 6). […] After 4 h of treatment, animals were sacrificed and the stomach was separated. This removed stomach was opened along the greater curvature and cleaned using saline to check for ulcers. The ulcers were graded as: 0—Normal texture stomach 0.5—Red coloration 1.0—Spot of ulcers 1.5—Hemorrhagic streaks 2.0—Ulcers up to 3 3.0—Ulcers above 3

[2] = Partition/distribution coefficient (log P), shake flask method with HPLC; format: physicochemical; conditions: 1-octanol–0.05 M phosphate buffer pH 7.4, 25 °C, n = 2
Method: (§2) The chromatographic purity of the compound MAS-1696, partition coefficient, chemical stability, and metabolic stability were assessed using RP-HPLC. An isocratic elution system of acetonitrile-methanol-water-acetic acid (70:18:12:0.01) was used. An injection volume of 10 µL and flow rate of 1 mL/min with a relative standard deviation of 0.5% reproducibility was maintained.
The aqueous phase and 1-octanol were stirred overnight. The MAS-1696 in 1-octanol (2 mL) and phosphate buffer (5 mL) was stirred at 25 °C in a water bath shaker for 8 h. Both layers were separated and filtered through Millipore’s 0.22 µm nylon membrane filter. The 1-octanol layer was diluted appropriately before being injected into the HPLC. The log P was determined by using the following equation:log Poct/wat = log ([solute]octanol)/([solute]unionized water)

[3] = Aqueous solubility in buffer pH 7.4 (HPLC); format: physicochemical; conditions: aqueous buffer of pH 7.4, HPLC
[4] = In vitro stability in simulated gastric fluid (HCl buffer pH 2); format: physicochemical; conditions: for % MAS-1696 Left in the Simulated Gastric Fluid of pH 2: 37 °C
Method: as §2
The HCl buffer (pH 2) at 37 °C was used to evaluate the chemical stability of MAS-1696. To a 400 µL solution of MAS-1696 (10 mg/mL in chloroform), 3.6 mL of HCl buffer (pH 2) was added and kept on a shaker plate at 37 °C. Aliquots (400 µL) collected at different time points were mixed with 1600 µL of acetonitrile. After centrifugation, the supernatant was subjected to HPLC analysis. The remaining percentage of MAS-1696 was determined using the formula:% remaining = (peak area at the respective time (min)/peak area at 0 min) × 100

[5] = In vitro human plasma stability; format: in vitro ADME; conditions: for % MAS-1696 Left in Human Plasma: 37 °C
Method: as §2
To a 50 µL solution of MAS-1696 (10 mg/mL in chloroform), 900 µL of human plasma was added and kept on a shaker plate at 37 °C. Aliquots (100 µL) were collected at different intervals and mixed with 900 µL of acetonitrile for precipitation of proteins. After centrifugation, the supernatant was subjected to HPLC analysis. The remaining percentage of the conjugate was calculated using the formula:% remaining = (peak area at the respective time (min)/peak area at 0 min) × 100.

With `C=CCc1ccc(OC(=O)[C@@H](C)c2ccc3cc(OC)ccc3c2)c(OC)c1` [MAS-1696, (S)-4-Allyl-2-methoxyphenyl 2-(2-methoxynaphthalen-6-yl)propanoate] the IC50 (COX1) was 8.5 µM, the “Selectivity Index” value (COX2; SI = IC50 COX1/IC50 COX2) was 1.1 and the IC50 (COX2; n = 3, mean ± SD, read-out: IC50 COX2 (converted)) was 7.76 µM. For the same compound, the “Rise in selectivity for COX2 over COX1 (COX selectivity index) compared to naproxen” value (COX2; vs parent compound naproxen) was 23%, the IC50 (human recombinant 5-LOX; n = 3, mean ± SD, read-out: IC50 5-LOX (converted)) was 28.5 µM and the “Anti-inflammatory effect (edema, paw volume)” value (from here on “Anti-inflammatory effect”) [1] was “anti-inflammatory potency comparable or even superior to S-naproxen”. For the same compound, the “Anti-inflammatory effect” value ([1]; listed as MAS1696) was “better anti-inflammatory effect when compared with S-naproxen”, the “Ulcer score / gastric damage” value (stomach (gastric ulcers)) was “considerably less damage; also recorded: significantly less stomach damage” and the logP at 8 h [2] was 4.7 ± 0.26. For the same compound, the “Solubility (pH 7.4)” value [3] was “BDL”, the “% MAS-1696 Left in the Simulated Gastric Fluid of pH 2” value (“% MAS-1696 Left … of pH 2” for short) ([4]; 0 h) was 100% and the “% MAS-1696 Left … of pH 2” value ([4]; 2 h) was 96.16%. The “% MAS-1696 Left … of pH 2” value ([4]; 5 h) was 90.72%, the “% MAS-1696 Left … of pH 2” value ([4]; 8 h) was 83.30% and the “% MAS-1696 Left … of pH 2” value ([4]; 12 h) was 77% and 77.03%. The “% of MAS-1696 hydrolyzed in simulated gastric fluid” value (“% of MAS-1696 hydrolyzed” below) ([4]; pH 2, 0 h) was 0%, the “% of MAS-1696 hydrolyzed” value ([4]; pH 2, 2 h) was 3.84% and the “% of MAS-1696 hydrolyzed” value ([4]; pH 2, 5 h) was 9.28%. For the same compound, the “% of MAS-1696 hydrolyzed” value ([4]; pH 2, 8 h) was 16.7%, the “% of MAS-1696 hydrolyzed” value ([4]; pH 2, 12 h) was 22.97% and the “% MAS-1696 Left in Human Plasma” value ([5]; 0 min) was 100%. For the same compound, the “Hydrolysis in human plasma (in words)” value ([5]; 80% human plasma, 0, 30 and 60 min) was “completely hydrolyzed within half an hour; also recorded: readily hydrolyzed”, the “% MAS-1696 Left in Human Plasma” value ([5]; 30 min) was 0% and the “% MAS-1696 Left in Human Plasma” value ([5]; 60 min) was 0%. For the same compound, the melting point was 99 to 100 °C.
In the case of `COc1ccc2cc([C@H](C)C(=O)O)ccc2c1` [Naproxen, S-naproxen], the IC50 (COX2) is reported as 20.1 µM, the IC50 (human recombinant 5-LOX) is reported as 36.5 µM and the “Anti-inflammatory effect” value [1] is reported as “significant decrease in the edema and paw volume”. For the same compound, the “Ulcer score / gastric damage” value (stomach (gastric ulcers)) was “substantial rise in ulcer score compared with the control”.
